Legend:
[1] = test system: murine KHT sarcoma; assay: KHT sarcoma tumour cell survival (excision and colony formation), cisplatin plus ZD6126; type: in vivo; conditions: 10 mg/kg cisplatin i.p. alone; assessed 24 hours later
Experimental: In the murine KHT sarcoma model (Lingyun Li, B. S. et al, Int. J. Radiation Oncology Biol. Phys 42, 899-903, 1998) tumours were treated with either 10 mg/kg cisplatin i.p. alone or 10 mg/kg cisplatin plus ZD6126 (10-100 mg/kg i.p.), cisplatin given 1 hour prior to ZD6126. The effects of the treatments on tumour cell survival was assessed 24 hours later by excising the tumour, disaggregating the cells and determining the number of colonies formed after 10-14 days. Surviving fraction compared to untreated cells was then determined.

[2] = test system: human Calu 6 tumour cells; assay: Calu 6 tumour model growth delay, ZD6126 in combination with cisplatin; type: in vivo; conditions: athymic nude mice; ZD6126 100 mg/kg i.p. x5 days; cisplatin 4 mg/kg i.p. day 0
Experimental: In a second tumour model, Calu 6, the advantage of combining ZD6126 and cisplatin (cis-Platinum(II)Diammine Dichloride—Sigma P-4394) was confirmed. Athymic nude mice were implanted subcutaneously with 1×10^6 human Calu 6 tumour cells (obtained from American Type Culture Collection, 10801 University Boulevard, Manassas, Va. 20110-2209 Cat. no. Hm-56) and tumours allowed to grow until they were approximately 9 mm in diameter. Groups of 10 tumour bearing mice were then treated as follows:
ZD6126 alone was dosed 100 mg/kg i.p. on days 0, 1, 2, 3, 4.
Cisplatin alone was dosed 4 mg/kg i.p. on day 0.
In the combination arm cisplatin 4 mg/kg i.p. was dosed on day 0, and ZD6126 100 mg/kg i.p. was dosed on days 1, 2, 3, 4 and 5.
The combination of cisplatin and ZD6126 gave a growth delay (time to reach 2× starting volume) of 20.5 days compared to control tumours.

[3] = test system: murine adenocarcinoma CaNT tumour; assay: CaNT tumour model growth delay, ZD6126 in combination with cisplatin; type: in vivo, mice
Experimental: ZD6126 alone was dosed on days 0, 2 and 4 using a split dose regimen of 100 mg/kg ZD6126, followed by a 2 hour interval, followed by a further 100 mg/kg ZD6126; doses were given intraperitoneally (i.p.).
Cisplatin (David Bull Laboratories) alone was dosed at 5 mg/kg i.p on day 0.
(§1) The combination treatment consisted of: • Day 0: ZD6126 100 mg/kg i.p., followed by a 2 hour interval, followed by a further 100 mg/kg ZD6126 i.p; and cisplatin 5 mg/kg given 10 minutes before first ZD6126 dose. • Days 2 and 4: ZD6126 100 mg/kg i.p., followed by a 2 hour interval, followed by a further 100 mg/kg ZD6126 i.p..
ZD6126 alone was dosed on days 0, 4, 7 and 11 using a split dose regimen of ZD6126 100 mg/kg i.p., followed by a 2 hour interval, followed by a further 100 mg/kg ZD6126 i.p.. Cisplatin alone was dosed at 5 mg/kg i.p on day 0 and day 7.
as §1, with “• Days 0 and 7:” for “• Day 0:”, “ZD6126 i.p.;” for “ZD6126 i.p; and”, “cisplatin” for “cisplatin 5 mg/kg”, “Days 3, 7” for “Days 2”, “and 10:” for “and 4:”

[4] = test system: FaDu cells (human squamous cell carcinoma of the pharynx); assay: FaDu tumour model growth delay, ZD6126 in combination with paclitaxel; type: in vivo; conditions: SCID mice; single dose ZD6126 125 mg/kg i.p.; paclitaxel 15 mg/kg i.p.
Experimental: In a third tumour model 5×10^5FaDu cells (human squamous cell carcinoma of the pharynx) were implanted onto the rear dorsum of 12-16 week old, female SCID mice. When the tumours had become established they were excised and cut into small tumour fragments approximately 1 mm^3. These fragments were implanted subcutaneously into further SCID mice. Once these tumours had become established (approximately 6 mm diameter) mice were treated with either a single dose of ZD6126 (125 mg/kg i.p.) alone, a single dose of paclitaxel (Taxol-BMS) (15 or 30 mg/kg i.p.) alone or the combination of a single dose of paclitaxel (15 mg/kg i.p.) and ZD6126 (125 mg/kg i.p.), paclitaxel being given 15 minutes before ZD6126.

[5] = test system: murine KHT sarcoma; assay: KHT sarcoma tumour cell survival (excision and colony formation), ZD6126 and radiation; type: in vivo, mice
Experimental: The murine KHT sarcoma grown in C3H mice was also used to confirm the advantage of combining ZD6126 and radiation. Tumours were treated with either radiation alone (0, 5, 10, 15 or 20 Gy single dose), ZD6126 100 mg/kg i.p., or radiation followed 1 hour later by ZD6126 100 mg/kg i.p.. The effects of either radiation alone, ZD6126 alone or the combination on tumour cell survival was assessed 24 hours later by excising the tumour, disaggregating the cells and determining the number of colonies formed after 10-14 days. Surviving fraction compared to untreated cells was then determined.

[6] = test system: CaNT tumours; assay: CaNT tumour model growth delay, ZD6126 in combination with ionising radiation; type: in vivo, mice; conditions: ZD6126 125 mg/kg i.p. days 0-4 and 7-11; radiation 15 Gy days 0 and 7
Experimental: The activity of combining ZD6126 and radiation in the CaNT tumour model was also investigated. Tumours were treated with either radiation alone (15 Gy days 0 and 7), ZD6126 alone (single dose of ZD6126 125 mg/kg i.p. on days 0, 1, 2, 3, 4, 7, 8, 9, 10 and 11), or a combination of both (15 Gy days 0 and 7, ZD6126 125 mg/kg i.p. on days 0, 1, 2, 3, 4, 7, 8, 9, 10 and 11). On the days radiation and ZD6126 were administered together,radiation treatment was given 3 hours after ZD6126 administration. Radiation was administered by placing the mice in lead boxes so that only the tumour bearing portion of the rear dorsum was exposed to a horizontal X-ray beam (Sheldon and Hill, B J C, 35, 795-808, […]). Mice were irradiated with 240 kV X-rays at a dose rate of 3.6 Gy/min.

[7] = test system: murine adenocarcinoma CaNT tumour; assay: In vivo cell survival excision assay, ZD6126 single versus divided doses in CaNT tumours; parameters: species or system mice
Experimental: In vivo cell survival was measured using an excision assay (D J Chaplin et al., Anticancer Research 19: 189-196 (1999)).
For each of the assays a) and b) below, the surviving fraction of tumour cells was determined as follows:
Tumours were excised at about 18 hours after treatment, weighed and disaggregated for 1 hour at 37 degrees Celsius in an enzyme cocktail containing 1 mg/ml pronase, 0.5 mg/ml DNAase and 0.5 mg/ml collagenase. Haemocytometer counts of trypan blue-excluding cells were made and viable cells seeded in appropriate concentrations to yield about 50 colonies/dish after in vitro incubation. Heavily irradiated feeder cells (V79 cells) were used at a concentration of 25,000/ml to support the growth of the surviving CaNT cells. The data were calculated as surviving fraction per gram of tumour.
ZD6126 was administered as a single dose of […] intra-peritoneally (i.p.) in saline with a small amount of 1% sodium carbonate added to aid the dissolution of ZD6126.
ZD6126 was dosed using a split dose regimen of 100 mg/kg ZD6126, followed by a time interval, followed by a further 100 mg/kg ZD6126; doses were given intraperitoneally (i.p.) in saline with a small amount of 1% sodium carbonate added to aid the dissolution of ZD6126.
The time intervals used were 1, 2, 3, 4 and 6 hours.
This improved effect varied with the proportion of total dose given in the first and second doses.
ZD6126 was dosed using split dose regimens of: • i) 25 mg/kg ZD6126, followed by a 2 hour interval, followed by a further 175 mg/kg ZD6126; • ii) 50 mg/kg ZD6126, followed by a 2 hour interval, followed by a further 150 mg/kg ZD6126; • iii) 100 mg/kg ZD6126, followed by a 2 hour interval, followed by a further 100 mg/kg ZD6126; • iv) 150 mg/kg ZD6126, followed by a 2 hour interval, followed by a further 50 mg/kg ZD6126; • v) 175 mg/kg ZD6126, followed by a 2 hour interval, followed by a further 25 mg/kg ZD6126;
All doses were given intraperitoneally (i.p.) in saline with a small amount of 1% sodium carbonate added to aid the dissolution of ZD6126.

[8] = study 1, ZD6126 2x100 mg/kg i.p. 2 h apart days 0, 2, 4, cisplatin 5 mg/kg i.p. day 0
[9] = study 2, ZD6126 2x100 mg/kg i.p. 2 h apart days 0, 4, 7, 11, cisplatin 5 mg/kg i.p. days 0 and 7

N.N.[Cl-].[Cl-].[Pt+2] [Cisplatin, cis-Platinum(II)Diammine Dichloride, reference compound]
cell killing [1]: approximately 98% | growth delay (time to reach 2× starting volume) compared to control tumours [2]: 6.0 days | Mean growth delay (vs control) - days [3, 8]: 2.1 days | Mean growth delay (vs control) - days [3, 9]: 7.7 days

CC(=O)O[C@H]1C(=O)[C@@]2(C)[C@H]([C@H](OC(=O)c3ccccc3)[C@]3(O)C[C@H](OC(=O)[C@H](O)[C@@H](NC(=O)c4ccccc4)c4ccccc4)C(C)=C1C3(C)C)[C@]1(OC(C)=O)CO[C@@H]1C[C@@H]2O [Paclitaxel, paclitaxel, reference compound]
Mean growth delay (vs control) - days [4]: 5.1 days

COc1cc2c(c(OC)c1OC)-c1ccc(OP(=O)(O)O)cc1[C@@H](NC(C)=O)CC2 [ZD6126, (5S)-5-(acetylamino)-9,10,11-trimethoxy-6,7-dihydro-5H-dibenzo[a,c]cyclohepten-3-yl dihydrogen phosphate]
tumour cells killed ([5]; ZD6126 alone 100 mg/kg): 97-98% | enhancement in cell killing ([5]; ZD6126 combined with radiation doses of 5, 10 or 15 Gy): 100-200 fold | Plus ZD6126 % cell survival ([5]; radiation dose 0 Gy, ZD6126 100 mg/kg i.p., C3H mice): 2.5% | ZD6126 Enhancement ([5]; radiation dose 0 Gy, ZD6126 100 mg/kg i.p., over controls): 40 fold | Plus ZD6126 % cell survival ([5]; radiation dose 5 Gy, ZD6126 100 mg/kg i.p. 1 hour later): 0.16% | ZD6126 Enhancement ([5]; radiation dose 5 Gy, ZD6126 100 mg/kg i.p.): 125 fold | Plus ZD6126 % cell survival ([5]; radiation dose 10 Gy, ZD6126 100 mg/kg i.p. 1 hour later): 0.015% | ZD6126 Enhancement ([5]; radiation dose 10 Gy, ZD6126 100 mg/kg i.p.): 100 fold | Plus ZD6126 % cell survival ([5]; radiation dose 15 Gy, ZD6126 100 mg/kg i.p. 1 hour later): 0.0016% | ZD6126 Enhancement ([5]; radiation dose 15 Gy, ZD6126 100 mg/kg i.p.): 219 fold | Mean growth delay (vs control) - days [6]: 9.1 days | split dose proportion giving the best anti-tumour effect ([7]; 100 mg/kg, 2 hour interval, further 100 mg/kg i.p.): best effect was seen with equal split doses | anti-tumour effect, as measured by surviving fraction of tumour cells, divided doses versus single dose ([7]; divided doses 2 hours apart (25+175, 50+150, 100+100, 150+50, 175+25 mg/kg i.p.) vs single 200 mg/kg): greater with divided doses of ZD6126 than with a single dose | surviving fraction per gram of tumour, divided doses versus single dose ([7]; two doses of 100 mg/kg i.p. separated by 2, 3 or 4 hours vs a single 200 mg/kg dose, about 18 hours after treatment): significantly more effective | growth delay (time to reach 2× starting volume) compared to control tumours [2]: 10.1 days | Mean growth delay (vs control) - days [4]: 4.3 days | Mean growth delay (vs control) - days [3, 8]: 6.5 days | Mean growth delay (vs control) - days [3, 9]: 9.9 days
